In patent US4096263A, “1,2,3,4-Tetrahydroisoquinolines and the preparation thereof” (Fujisawa Pharmaceutical Co., Ltd., priority 1975, dated 1978):
Where a name gives a salt, the structure may show the parent alone.

Tested on: jejunum of the dog
Experiment: Intestinal Motility in Dogs (balloon at the jejunum, inhibition of motility in anesthetized mongrel dogs)
Type: in vivo
Method: Intestinal Motility in Dogs Method: Mongrel dogs weighing 8 to 16 kg which were withheld from any food and water for 24 hours were anesthetized with a combination of urethane (1.5 g/kg) and morphine (15 mg/kg). A balloon was placed at the jejunum of the dog, compressed at a pressure of 10 cm. H2 O, and connected to a strain gauge. Changes in the motility were mainly recorded in terms of amplitude, but taking account of the number of movements. The maximum change of all the determinations, served as the calculation of the 50% inhibition dose (ED50). The time required for 80% recovery was considered as a duration of action.

SMILES: Cn1nnnc1NCC1NCCc2cc(O)c(O)cc21 (centres unmarked) [Test Compound, 1-(1-Methyl-1H-tetrazol-5-yl)aminomethyl-6,7-dihydroxy-1,2,3,4-tetrahydroisoquinoline hydrochloride trihemihydrate]
- ED50 (Canis lupus familiaris, anesthetized mongrel dogs (urethane 1.5 g/kg and morphine 15 mg/kg), jejunal balloon at 10 cm. H2O, maximum change of motility, mainly amplitude, route not stated, read-out: ED50 (50% inhibition dose)): 1 µg/kg
- Duration of Action (time required for 80% recovery, anesthetized mongrel dogs, jejunal balloon, dose and route not stated): 25 min
